The results in this text go back to article PMC7245553 (Cell chemical biology, 2020).

Molecules are shown by their SMILES.

Assay [1] relates to DG167-resistant M. tuberculosis. The class given is cell-based, Mycobacterium tuberculosis.
In assay [2] the test system is clinical drug-sensitive and drug-resistant strains of M. tuberculosis. In words: Whole-cell activity versus clinical M. tuberculosis strains. The class given is cell-based, Mycobacterium tuberculosis.

As to `CCCCS(=O)(=O)Nc1ccc2[nH]c(C#N)c(C)c2c1` [Compound 9, N-(2-cyano-3-methyl-1H-indol-5-yl)butane-1-sulfonamide], the “cross-resistance with DG167” value in assay [1] is “cross-resistant”. Moreover, the “whole-cell activity versus clinical strains” value in assay [2] was “maintained their in vitro potency”.

With `CCCCCS(=O)(=O)Nc1ccc2[nH]c(C#N)c(C)c2c1` [Compound 10, N-(2-cyano-3-methyl-1H-indol-5-yl)pentane-1-sulfonamide], the “cross-resistance with DG167” value in assay [1] was “cross-resistant”. Moreover, the “whole-cell activity versus clinical strains” value in assay [2] was “maintained their in vitro potency”.

On to `Cc1n[nH]c2ccc(NS(=O)(=O)CCCCF)cc12` [JSF-3285, 4-fluoro-N-(3-methyl-1H-indazol-5-yl)butane-1-sulfonamide], for which the “cross-resistance with DG167” value in assay [1] was “cross-resistant with DG167”. For the same molecule, the “whole-cell activity versus clinical strains” value in assay [2] is recorded as “comparable with its efficacy versus the H37Rv strain”.
